Assay results reported in patent publication US20110251191A1, “USE OF SUBSTITUTED 2, 3-DIHYDROIMIDAZO[1,2-C]QUINAZOLINES FOR THE TREATMENT OF MYELOMA” (BAYER SCHERING PHARMA AKTIENGESELLSCHAFT, priority 2008, published 2011).

Experiments:
Type in all cases: cell-based
Molp2 = assay: proliferation assay (CellTiter-Glo), Molp2; conditions: MOLP-2; Molp2 cells, 72-hour drug exposure
Experimental: (§1) In accordance with the invention, the compounds were assessed in a cell-based assay that measures the capacity of the compounds to inhibit tumor cell proliferation following a 72-hour drug exposure. Cell viability is determined using CellTiter-Glo® Luminescent Cell Viability Assay (Promega). Cells were plated at 2000-5000 cells/well (depending on the cell lines) in 100 μL growth medium on 96-well microtiterplate. For each cell line assayed, cells were plated onto a separate plate for determination of Luminescence at t=0 hour and t=72 hour time points. Following overnight incubation at 37° C., Luminescence values for the t=0 samples were determined. Dose plates for the t=72 hour time points were treated with compounds diluted into growth medium. Cells were then incubated for 72 hours at 37° C. Luminescence values for the t=72 hour samples were determined. For data analysis, briefly, t=0 values were subtracted from those determined for the t=72 hour time points, for both the treated and untreated samples. Percent differences in […] between drug-treated and control values were used to determine the percent inhibition of growth.

Molm13 = assay: proliferation assay (CellTiter-Glo), Molm13; conditions: Homo sapiens, MOLM-13; Molm13 cells, 72-hour drug exposure
Experimental: as §1

L363 = assay: proliferation assay (CellTiter-Glo), L363; conditions: Homo sapiens, L-363; L363 cells, 72-hour drug exposure
Experimental: as §1

OPM2 = assay: proliferation assay (CellTiter-Glo), OPM2; conditions: Homo sapiens, OPM-2; OPM2 cells, 72-hour drug exposure
Experimental: as §1

Molp8 = assay: proliferation assay (CellTiter-Glo), Molp8; conditions: Homo sapiens, MOLP-8; Molp8 cells, 72-hour drug exposure
Experimental: as §1

KMS-12-PE = assay: proliferation assay (CellTiter-Glo), KMS-12-PE; conditions: Homo sapiens; KMS-12-PE cells, 72-hour drug exposure
Experimental: as §1

LP-1 = assay: proliferation assay (CellTiter-Glo), LP-1; conditions: LP-1 cells, 72-hour drug exposure
Experimental: as §1

KMS-12-BM = assay: proliferation assay (CellTiter-Glo), KMS-12-BM; conditions: KMS-12-BM cells, 72-hour drug exposure
Experimental: as §1

[1] = system: multiple myeloma cell lines; assay: proliferation assays with multiple myeloma cell lines (summary); conditions: range over 9 multiple myeloma cell lines, 72-hour drug exposure; read-out: IC50s, proliferation of 9 multiple myeloma tested
Experimental: as §1

RPMI 8226 = assay: proliferation assay (CellTiter-Glo), RPMI 8226; conditions: Homo sapiens; RPMI 8226 cells, 72-hour drug exposure
Experimental: as §1

SMILES: COc1c(OCCCN2CCOCC2)ccc2c1N=C(NC(=O)c1cnc(N)nc1)N1CCN=C21 [Compound A, 2-amino-N-[7-methoxy-8-(3-morpholin-4-ylpropoxy)-2,3-dihydroimidazo[1,2-c]quinazolin-5-yl]pyrimidine-5-carboxamide]
- IC50 (Molp2): 12 nM
- IC50 (Molm13): 69 nM
- IC50 (L363): 8.1 nM
- IC50 (OPM2): 92 nM
- IC50 (Molp8): 23 nM
- IC50 (KMS-12-PE): 67 nM
- IC50 (LP-1): 3.7 nM
- IC50 (KMS-12-BM): 3.7 nM
- IC50 [1]: 3 to 100 nM
- IC50 (RPMI 8226): 48 nM
